# Several values for one entry are separate records, joined by “and”; a condition that tells them apart may be missing. Equal entries are not always repeated.
# Experiments:
# [1] = Effect of dose and formulation on MK-6482 exposure (pooled Phase 1 mixed effects model); conditions: human, in vivo
# Source text: There are many important differences in patient composition between the trials. To note, MK-6482-001 was a first-in-human dose finding trial studying patients with advanced solid tumors or renal cell carcinoma (RCC), while MK-6482-002,-006, and-007 were PK trials conducted with (predominantly female) healthy volunteers. In addition, study-007 enrolled Japanese subjects based on specific CYP2C19 phenotypes; all other studies enrolled subjects without genotype-based selection criteria. Finally, the protocols differed in terms of belzutifan formulation given to trial subjects: subjects in protocols 001 and 002 were given one formulation of belzutifan, study 006 compared that formulation and a new formulations, enrolling all subjects to receive both the formulations, and study 007 patients only received the new formulation of MK-6482.
# [2] = Effect of body weight on MK-6482 exposure (pooled Phase 1 mixed effects model); conditions: for % Change in AUC (h*ng/mL) per 10 kg increase in body weight / % Change in Cmax (ng/mL) per 10 kg increase in body weight: model accounting for dose, formulation
# Method: Linear mixed effect model analyses were performed on the natural log transformed PK parameters from the four pooled Phase 1 studies, separately for AUC and Cmax. The model contained fixed effects of natural log transformed dose, drug formulation (old or new), enzyme phenotype determined from genotype, relevant additional covariates, and a random subject effect. UGT2B17 phenotype was considered as a categorical variable with dummy encoding for each phenotype (intermediate metabolizers (IM), poor metabolizers (PM)) that differed from the extensive metabolizer (EM) category). Similarly, CYP2C19 metabolizer status was considered as a categorical variable with dummy encoding for each phenotype (PM, IM, rapid metabolizers (RM) and ultra-rapid metabolizers (UM)) that differed from the EM category. Relevant covariates were selected under the null hypothesis from the following: disease (healthy vs patient), body weight (in kg), age, gender, and dose-by-body weight and dose-by-formulation interactions. Final models used to generate tables in this Example include log (dose), formulation (old/new), body weight (kg), and enzyme phenotype as variables.
# Between- and within-subject random effects were modeled via terms Si and ϵij, respectively, and assumed to be normally distributed.
# Presence of an interactive effect was tested using an F-test with Kenward-Roger denominator degrees of freedom for the fixed effects. As a descriptive measure, the effect of body weight on exposure was also calculated separately within each UGT2B17 group using a mixed effects model accounting for log(dose) and formulation only. […] For the overall estimate, model (1) was used.
# UGT2B17 and CYP2C19 = assay: Pharmacogenetic analysis of pooled Phase 1 PK: combined UGT2B17 and CYP2C19 phenotype vs double EM; conditions: model-based estimates
# Method: Linear mixed effect model analyses were performed on the natural log transformed PK parameters from the four pooled Phase 1 studies, separately for AUC and Cmax. The model contained fixed effects of natural log transformed dose, drug formulation (old or new), enzyme phenotype determined from genotype, relevant additional covariates, and a random subject effect. UGT2B17 phenotype was considered as a categorical variable with dummy encoding for each phenotype (intermediate metabolizers (IM), poor metabolizers (PM)) that differed from the extensive metabolizer (EM) category). […]
# To understand the differences in exposure between different genetic phenotype categories, least square means were computed for each UGT2B17 phenotype, each CYP2C19 phenotype, and for each combination UGT2B17/CYP2C19 phenotype. […] Similar analyses were also conducted separately within each UGT2B17 phenotype group to quantify the difference in exposure between CYP2C19 phenotype groups separately for each UGT2B17 phenotype. […]
# The Phase 1 PK endpoints analyzed were AUCo->following single dose (SD) administration and steady state AUCo-, following multiple dose (MD) administration pooled, as well as Cmax following SD administration and steady state Cmax following MD administration pooled. […]
# UGT2B17 = biological target: T1, UGT2B17 (Homo sapiens, UniProt O75795)
# T1 sequence (O75795 24-530): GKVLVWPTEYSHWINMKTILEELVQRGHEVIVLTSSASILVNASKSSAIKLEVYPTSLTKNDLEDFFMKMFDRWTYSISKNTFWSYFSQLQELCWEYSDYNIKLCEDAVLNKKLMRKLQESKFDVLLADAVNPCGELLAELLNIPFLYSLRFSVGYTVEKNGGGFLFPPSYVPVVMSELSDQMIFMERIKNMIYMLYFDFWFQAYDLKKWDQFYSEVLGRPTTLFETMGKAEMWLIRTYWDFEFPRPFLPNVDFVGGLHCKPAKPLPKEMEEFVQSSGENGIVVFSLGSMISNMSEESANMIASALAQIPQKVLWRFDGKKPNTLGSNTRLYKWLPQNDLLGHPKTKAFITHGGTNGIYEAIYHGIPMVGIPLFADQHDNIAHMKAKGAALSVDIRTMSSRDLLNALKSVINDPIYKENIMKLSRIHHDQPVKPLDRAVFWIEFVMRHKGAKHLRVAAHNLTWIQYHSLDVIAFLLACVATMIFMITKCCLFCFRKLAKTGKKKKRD
# [3] = cited from earlier work
# [4] = dose-escalation cohort, doses up to 160 mg once daily
smiles,measurement,setting,value
"CS(=O)(=O)c1ccc(Oc2cc(F)cc(C#N)c2)c2c1[C@H](O)[C@H](F)[C@@H]2F [MK-6482, 3-[(1S,2S, 3R)-2,3-Difluoro-1-hydroxy-7-methylsulfonyl-indan-4-yl]oxy-5-fluoro-benzonitrile]","effect of dose on Cmax, estimated coefficient of log(dose)",[1],0.90
same,expected difference in exposure between extremes of body weight,"[2]; 41 kg vs 164 kg, independent of enzyme phenotype",~2.9 fold
same,% Change in AUC (h*ng/mL) per 10 kg increase in body weight,[2]; UGT2B17 EM,−10.9%
same,% Change in Cmax (ng/mL) per 10 kg increase in body weight,[2]; UGT2B17 EM,−6.4%
same,% Change in AUC (h*ng/mL) per 10 kg increase in body weight,[2]; UGT2B17 IM,−8.3%
same,% Change in Cmax (ng/mL) per 10 kg increase in body weight,[2]; UGT2B17 IM,−7.8%
same,% Change in AUC (h*ng/mL) per 10 kg increase in body weight,[2]; UGT2B17 PM,−15.5%
same,% Change in Cmax (ng/mL) per 10 kg increase in body weight,[2]; UGT2B17 PM,−4.5%
same,decrease in AUC for every 10 kg increase in body weight,"[2]; overall, all subjects","9.2 (6.5, 12.0) % and 9.2%"
same,decrease in Cmax for every 10 kg increase in body weight,"[2]; overall, all subjects","7.0 (4.5, 9.5) %"
same,exposure of PMs of both enzymes relative to EMs of both enzymes,UGT2B17 and CYP2C19,over four-fold
same,metabolism (primary pathway and enzyme),UGT2B17,"metabolized primarily by glucuronidation, catalyzed predominantly by UDP Glucuronosyltransferase Family 2 Member B17 (UGT2B17)"
same,dose-limiting toxicities,[3]; [4],no dose-limiting toxicities occurred
same,maximum tolerated dose,[3]; [4],not reached
same,most common adverse events,[3]; heavily pre-treated patients with ccRCC,anemia and hypoxia

# From patent US20240327929A1, “DOSAGE REGIMEN FOR ADMINISTRATION OF BELZUTIFAN” (MERCK SHARP & DOHME LLC, priority 2021, published 2024)
